Measurements taken from paper PMC10865350, “Investigating Polypharmacology through Targeting Known Human Neutrophil Elastase Inhibitors to Proteinase 3” (Journal of Chemical Information and Modeling, 2024).
Where two headings read alike, the source gives them in different places.

Legend:
[1] = tested on: human neutrophil elastase (HNE); conditions: Bayer HealthCare AG value; cited from earlier work
[2] = tested on: human neutrophil elastase (HNE); assay: HNE inhibition IC50 reported by Bayer HealthCare AG (literature values); format: biochemical; conditions: 298.15 K; calculated from Bayer HealthCare AG IC50 values, Nussbaum et al. refs 9-11
Excerpt: To ensure we had the best models to represent the selected ligands and their interactions with the protein, we explored four different force field combinations for protein and ligands (Table 2) and compared the predicted values to published experimental data for HNE. […] The predicted free energies obtained with MSλD are provided in Table S3 together with the free energies derived from published experimental data.

HNE = biological target: T1, HNE (Homo sapiens, UniProt P08246); assay: Enzymatic activity assay, HNE (fluorogenic substrate MeOSuc-AAPV-AMC); format: biochemical; conditions: best enantiomer for compounds 5-8
T1 construct: purchased Athens Research and Technology
T1 sequence (P08246 30-267): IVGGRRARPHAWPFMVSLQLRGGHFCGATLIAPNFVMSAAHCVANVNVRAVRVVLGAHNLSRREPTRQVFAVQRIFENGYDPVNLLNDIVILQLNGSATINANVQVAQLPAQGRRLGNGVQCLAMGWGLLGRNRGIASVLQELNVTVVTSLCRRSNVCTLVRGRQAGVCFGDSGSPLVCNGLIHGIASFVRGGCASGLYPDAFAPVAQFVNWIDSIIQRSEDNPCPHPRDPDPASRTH
Protocol: (§1) II.1 Experimental details
(§2) Chemicals. All chemicals and reagents were of analytical grade. Enzymes, PR3 and HNE, were purchased from Athens Research and Technology.
(§3) India) using published procedures.42 The substrate of HNE (MeOSuc-AAPV-AMC) was supplied by Santa Cruz Biotechnology.
(§4) Activity assay. The enzymatic assays for both PR3 and HNE were conducted according to the method published in (Budnjo et al., 2014) with minor modifications. Briefly, 0.5 nM of enzyme […]
(§5) same buffer containing the inhibitors at various concentrations for 30 min at RT. For PR3, the […]
(§6) 320, emission filter 420) at a final concentration of 5 μM while the HNE reaction was started by […]
(§7) at a final concentration of 5 μM. The fluorescent signal was read every 30 second for 30 min at 30 °C using a fluorescent plate reader (Tecan Spark). The enzymatic activity was measured from the initial linear portion of the slope (fluorescent signal/min) of the time-course curve of reaction progress. The activity data were produced in triplicates. Data were fitted using nonlinear regression analysis (GraphPad Prism v.9) to determine the IC50 values.

Proteinase 3 (PR3) [3] = biological target: T2, Proteinase 3 (PR3) (Homo sapiens, UniProt P24158); assay: Enzymatic activity assay, PR3 (FRET peptide Abz-VADnVADYQ-EDDnp); format: biochemical; conditions: best enantiomer for compounds 5-8
T2 construct: purchased Athens Research and Technology
T2 sequence (P24158 28-256): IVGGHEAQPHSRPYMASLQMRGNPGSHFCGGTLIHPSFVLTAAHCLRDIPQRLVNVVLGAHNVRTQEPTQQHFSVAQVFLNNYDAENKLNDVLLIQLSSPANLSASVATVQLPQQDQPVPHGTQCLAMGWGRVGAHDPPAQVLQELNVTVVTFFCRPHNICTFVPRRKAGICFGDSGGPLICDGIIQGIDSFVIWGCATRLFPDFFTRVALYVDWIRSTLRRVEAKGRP
Protocol: as §1, §2, §3, §4, §5, §6, §7

Proteinase 3 (PR3) [4] = assay: as above; format: biochemical, human; conditions: selectivity: PR3 IC50 with respect to HNE IC50
Protocol: as §1, §2, §3, §4, §5, §6, §7

[5] = 0.5 nM enzyme, 5 μM substrate, triplicates, read-out: IC50 HNE
[6] = read-out: pIC50 HNE (converted)
[7] = 0.5 nM enzyme, 5 μM FRET peptide, triplicates, read-out: IC50 PR3

| ΔGexpt HNE (ΔG = RTln(IC50)) [2] | IC50 (HNE; [5]) | IC50 (HNE; [6]) | IC50 (Proteinase 3 (PR3) [3]; [7]) | IC50 ratio (PR3/HNE) (Proteinase 3 (PR3) [4]) | IC50 (Proteinase 3 (PR3) [3]; read-out: pIC50 PR3 (converted)) | SMILES | IC50 [1] |
| --- | --- | --- | --- | --- | --- | --- | --- |
| -10.6 kcal/mol | – | – | – | – | – | CC1=C(C#N)[C@@H](c2ccc(C#N)cc2)n2ncnc2N1c1cccc(C(F)(F)F)c1 [Compound 2] | 15 nM |
| -11.7 kcal/mol | – | – | – | – | – | CC1=C(C#N)[C@@H](c2ccc(C#N)cc2)n2nc(N)nc2N1c1cccc(C(F)(F)F)c1 [Compound 3] | 2.5 nM |
| -9.7 kcal/mol | – | – | – | – | – | COc1nc2n(n1)[C@H](c1ccc(C#N)cc1)C(C#N)=C(C)N2c1cccc(C(F)(F)F)c1 [Compound 4] | 69 nM |
| -12.5 kcal/mol | 1.3 ± 0.2 nM | 1.26 nM | 190 ± 10 nM | 146 | – | CNc1nc2n(n1)[C@H](c1ccc(C#N)cc1)C(C#N)=C(C)N2c1cccc(C(F)(F)F)c1 [Compound 5] | 0.59 nM |
| -12.8 kcal/mol | 0.6 nM | 0.794 nM | 7.7 ± 0.6 nM | 13 | – | CC1=C(C#N)[C@@H](c2ccc(C#N)cc2)n2nc(NC(=O)C3CC3)nc2N1c1cccc(C(F)(F)F)c1 [Compound 6] | 0.35 nM |
| -13.3 kcal/mol | 1.1 ± 0.1 nM | 1.26 nM | – | 19 | 20 nM | COC(=O)Nc1nc2n(n1)[C@H](c1ccc(C#N)cc1)C(C#N)=C(C)N2c1cccc(C(F)(F)F)c1 [Compound 7] | 0.17 nM |
| -12.9 kcal/mol | 0.8 ± 0.1 nM | 0.794 nM | 58.9 ± 6 nM | 74 | – | CNC(=O)Nc1nc2n(n1)[C@H](c1ccc(C#N)cc1)C(C#N)=C(C)N2c1cccc(C(F)(F)F)c1 [Compound 8] | 0.3 nM |
| -10.8 kcal/mol | – | – | – | – | – | CC1=C(C#N)[C@@H](c2ccc(C#N)cc2)n2nc(NS(C)(=O)=O)nc2N1c1cccc(C(F)(F)F)c1 [Compound 9] | 12 nM |
| -9.9 kcal/mol | – | – | – | – | – | CNS(=O)(=O)Nc1nc2n(n1)[C@H](c1ccc(C#N)cc1)C(C#N)=C(C)N2c1cccc(C(F)(F)F)c1 [Compound 10] | 50 nM |
| – | – | – | – | – | – | CC1=C(C#N)[C@@H](c2ccc(C#N)cc2)n2nc(NC(=O)C3CCCCC3)nc2N1c1cccc(C(F)(F)F)c1 [Compound 11] | < 0.3 nM |
